Laboratory results: patent US6583283B1, “Polymorphic forms of cipamfylline” (SmithKline Beecham Corporation, priority 1997, dated 2003)
Values belong to the compound of their own block, whether it stands above or below them.

What was measured:
Format in all cases: physicochemical
[1] = Compression and grinding study; details: for Stability to compression / Stability to grinding: polymorphic form followed by IR
Protocol: These spectra were recorded using a Spectra-Tech Plan II microscope coupled to a P-E 1760 FTIR spectrometer (64-256 scans, ratio mode, MCT detector, 4 cm^−1 resolution, dry air purge). Spectra of samples without sample preparation were obtained by mounting crystals on a diamond window. Crushed crystals were prepared using a Spectra-Tech micro-Sample Plan (a compression cell) fitted with diamond windows. A stereo microscope was used to observe the behavior of the crystals during compression. After compression, the diamond windows were separated and a spectrum was recorded of the material adhering to one of the windows.

[2] = Heats of solution in methanol and acetone; details: for Heat of solution, Acetone / Heat of solution, Methanol: endothermic; for Heat of solution, Acetone: solvent acetone; for Heat of solution, Methanol: solvent methanol
Protocol: Heats of solution were determined using acetone and methanol as suitable solvents. Different polymorphic forms give rise to different heats of solution. […] The value of HT, the heat of transition, is equal to the difference in crystal lattice energy of the two forms and is the same in both solvents. This is predicted since individual enthalpies are solvent dependent but difference are not. […] Heats of solution for Form IV are in progress.

[3] = Thermal analysis (thermomicroscopy, annealing); details: for Polymorphic form after annealing (by IR): 10° C./min from ambient to ca. 250° C., held ½-1 hour, slow cooling to room temperature
Protocol: Differential Scanning Calorimetry (DSC) could not differentiate the three forms of Cipamfylline. […] However, when the heating rate was reduced sufficiently, the melting endotherm appeared as a fused melt, i.e. two components melting. This behavior was common to both Forms I and II.
The onset of sublimation was different for each form and continued over a wide temperature range (130-290° C. on a non-calibrated instrument). This is not evident on the DSC thermograms. Melting occurred over a range (310-323° C. on a non-calibrated instrument) for all three forms. The possibility of two components melting consecutively could not be distinguished. The sublimate was collected for all three forms and analyzed by IR and NMR.
The annealing procedure consisted of heating at 10° C./min from ambient to ca. 250° C. and holding at this point for ½-1 hour, then allowing the sample to cool slowly to room temperature.
This could explain the similarity in melting points of the three forms.

[4] = Solubility in recrystallization solvents; details: solvents marked with an asterisk, such as toluene or water
Crystalline stability = details: Forms I, II and IV compared
Excerpt: Form I is characterized by a minimum of five years crystalline stability.

Polymorphic conversion under pressure ([1]; under pressure, under some circumstances): convert to Form I
Structure (SMILES): Nc1nc2c([nH]1)c(=O)n(CC1CC1)c(=O)n2CC1CC1 [Form IV, 1,3-di-cyclopropylmethyl-8-amino xanthine]

Relative stability suggested by heats of solution ([2]; Form I vs Form II, both solvents): the more stable form
Heat of solution, Acetone ([2]; listed as 2): 5.59 kcal/mol
Heat of solution, Methanol ([2]; listed as 2): 6.47 kcal/mol
Stability to compression [1]: stable to compression
Stability to grinding [1]: not to severe grinding
Polymorphic form after annealing (by IR) [3]: converted to Form I
Structure (SMILES): Nc1nc2c([nH]1)c(=O)n(CC1CC1)c(=O)n2CC1CC1 [Form II, 1,3-di-cyclopropylmethyl-8-amino xanthine]

Solubility in solvent [4]: particularly low solubility
Structure (SMILES): Nc1nc2c([nH]1)c(=O)n(CC1CC1)c(=O)n2CC1CC1 [Cipamfylline, 1,3-di-cyclopropylmethyl-8-amino xanthine]

Heat of solution, Acetone ([2]; listed as 1): 3.93 kcal/mol
Heat of solution, Methanol ([2]; listed as 1): 4.81 kcal/mol
Stability to compression [1]: stable
Stability to grinding [1]: stable
Relative stability among the three polymorphs (Crystalline stability): greatest stability
Relative stability indicated by thermal experiments [3]: the most stable form
Polymorphic form after annealing (by IR) [3]: converted to Form I
Structure (SMILES): Nc1nc2c([nH]1)c(=O)n(CC1CC1)c(=O)n2CC1CC1 [Form I, 1,3-di-cyclopropylmethyl-8-amino xanthine]
